This is an account of results in ChEMBL document CHEMBL2040548, “Anti-influenza virus activities of 4-substituted 2,4-dioxobutanoic acid inhibitors” (Antimicrob Agents Chemother, 1996).

In test [1] the target is Polymerase acidic protein (Influenza A virus (A/Puerto Rico/8/1934(H1N1)), UniProt P03433). In words: Inhibition of cap 1 ALMV primed Influenza transcriptase.
For test [2], the target named is Polymerase acidic protein (Influenza A virus (strain A/Hong Kong/1/1968 H3N2)) (UniProt Q91MA9). In words: Upper respiratory tract challenge. It is filed as functional, organism-based. As to conditions: Mus musculus.

The term IC50 denotes the point on the concentration scale where inhibition reaches its midpoint. Low readings indicate greater potency, high ones weaker potency. Compound `O=C(O)/C(O)=C/C(=O)C1(Cc2ccc(Cl)cc2)CCN(Cc2ccc(Cl)cc2)CC1` yielded an IC50 in test [1] of 540 nM. That is a sub-micromolar value.

Regarding `CC(=O)N[C@@H]1[C@@H](NC(=N)N)C=C(C(=O)O)O[C@@]1(C)[C@H](O)[C@H](O)CO`, in test [2], the Log10 reduction stood at 4.3.
